US20260262643A1, “HERBICIDAL BENZOXAZINES” (FMC CORPORATION, priority 2022, published 2026)

What was measured:
ryegrass, Italian [1] = experiment: Test C preemergence; assay type: in vivo, Lolium multiflorum
How it was run: (§1)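 Seeds in loam–sand blend received preemergence directed soil spray of test chemicals in non-phytotoxic solvent with surfactant; postemergence treatment was applied at one- to two-leaf stage (2–10 cm). After 10 days in greenhouse, injury rated visually versus untreated controls, 0 (no effect) to 100 (complete control).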

rice = experiment: Test D flooded paddy test; assay type: in vivo, Oryza sativa; conditions: 250 g ai/ha, applied to paddy water, visual rating after 13 to 14 days, scale 0 to 100 (0 no effect, 100 complete control)
How it was run: (§2)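 Seedlings reached the 2-leaf stage, then pots were flooded to 3 cm over the soil surface. Compound was applied into the water, depth was maintained, and plants stayed in the greenhouse 13 to 14 days before visual scoring (0–100) relative to controls.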

galium = experiment: Test C postemergence; assay type: in vivo, Galium aparine; conditions: 10 days, 0 to 100 scale (0 no effect, 100 complete control)
How it was run: as §1

wheat [2] = experiment: Test C preemergence; assay type: in vivo, Triticum aestivum
How it was run: as §1

oat, wild [3] = experiment: Test C postemergence; assay type: in vivo, Avena fatua; conditions: 10 days, 0 to 100 scale (0 no effect, 100 complete control)
How it was run: as §1

ryegrass, Italian [4] = experiment: Test C postemergence; assay type: in vivo, Lolium multiflorum; conditions: 10 days, 0 to 100 scale (0 no effect, 100 complete control)
How it was run: as §1

soybean [5] = experiment: Test C preemergence; assay type: in vivo, Glycine max
How it was run: as §1

barnyardgrass [6] = experiment: Test C postemergence; assay type: in vivo, Echinochloa crusgalli; conditions: 10 days, 0 to 100 scale (0 no effect, 100 complete control)
How it was run: as §1

green foxtail [7] = experiment: Test C preemergence; assay type: in vivo, Setaria viridis
How it was run: as §1

green foxtail [8] = experiment: Test C postemergence; assay type: in vivo, Setaria viridis; conditions: 10 days, 0 to 100 scale (0 no effect, 100 complete control)
How it was run: as §1

oat, wild [9] = experiment: Test C preemergence; assay type: in vivo, Avena fatua
How it was run: as §1

sedge, umbrella = experiment: Test D flooded paddy test; assay type: in vivo, Cyperus difformis; conditions: 250 g ai/ha, applied to paddy water, visual rating after 13 to 14 days, scale 0 to 100 (0 no effect, 100 complete control)
How it was run: as §2

ducksalad = experiment: Test D flooded paddy test; assay type: in vivo, Heteranthera limosa; conditions: 250 g ai/ha, applied to paddy water, visual rating after 13 to 14 days, scale 0 to 100 (0 no effect, 100 complete control)
How it was run: as §2

horseweed = experiment: Test C postemergence; assay type: in vivo, Erigeron canadensis; conditions: 10 days, 0 to 100 scale (0 no effect, 100 complete control)
How it was run: as §1

pigweed, palmer [10] = experiment: Test C postemergence; assay type: in vivo, Amaranthus palmeri; conditions: 10 days, 0 to 100 scale (0 no effect, 100 complete control)
How it was run: as §1

soybean [11] = experiment: Test C postemergence; assay type: in vivo, Glycine max; conditions: 10 days, 0 to 100 scale (0 no effect, 100 complete control)
How it was run: as §1

ragweed [12] = experiment: Test C postemergence; assay type: in vivo, Ambrosia artemisiifolia; conditions: 10 days, 0 to 100 scale (0 no effect, 100 complete control)
How it was run: as §1

pigweed, palmer [13] = experiment: Test C preemergence; assay type: in vivo, Amaranthus palmeri
How it was run: as §1

barnyardgrass [14] = experiment: Test D flooded paddy test; assay type: in vivo, Echinochloa crus-galli; conditions: 250 g ai/ha, applied to paddy water, visual rating after 13 to 14 days, scale 0 to 100 (0 no effect, 100 complete control)
How it was run: as §2

kochia [15] = experiment: Test C preemergence; assay type: in vivo, Bassia scoparia
How it was run: as §1

blackgrass [16] = experiment: Test C preemergence; assay type: in vivo, Alopecurus myosuroides
How it was run: as §1

kochia [17] = experiment: Test C postemergence; assay type: in vivo, Bassia scoparia; conditions: 10 days, 0 to 100 scale (0 no effect, 100 complete control)
How it was run: as §1

corn [18] = experiment: Test C postemergence; assay type: in vivo, Zea mays; conditions: 10 days, 0 to 100 scale (0 no effect, 100 complete control)
How it was run: as §1

corn [19] = experiment: Test C preemergence; assay type: in vivo, Zea mays
How it was run: as §1

barnyardgrass [20] = experiment: Test C preemergence; assay type: in vivo, Echinochloa crusgalli
How it was run: as §1

ragweed [21] = experiment: Test C preemergence; assay type: in vivo, Ambrosia artemisiifolia
How it was run: as §1

wheat [22] = experiment: Test C postemergence; assay type: in vivo, Triticum aestivum; conditions: 10 days, 0 to 100 scale (0 no effect, 100 complete control)
How it was run: as §1

blackgrass [23] = experiment: Test C postemergence; assay type: in vivo, Alopecurus myosuroides; conditions: 10 days, 0 to 100 scale (0 no effect, 100 complete control)
How it was run: as §1

[24] = 500 g ai/ha, preemergence, 0 to 100 scale (0 no effect, 100 complete control)
[25] = Preemergence, 125 g ai/ha, 0 to 100 scale, 0 no effect, 100 complete control

COC[C@H]1CN(C(=O)c2cc(-n3cnc(C4CCC4)n3)cc3c2OCCO3)c2cccc(Cl)c2O1 [Compound 380]
Ryegrass, Italian plant response rating (ryegrass, Italian [1]; [24]): 80 | Plant response rating, Ryegrass, Italian (ryegrass, Italian [1]; [25]): 70 | Plant response rating, Rice (Flood) (rice): 10 | Plant response rating, Galium (galium; 500 g ai/ha, postemergence): 100 | Plant response rating, Galium (galium; Postemergence, 125 g ai/ha): 100 | Wheat plant response rating (wheat [2]; [24]): 10 | Plant response rating, Wheat (wheat [2]; [25]): 0 | Plant response rating, Oat, Wild (oat, wild [3]; 500 g ai/ha, postemergence): 0 | Plant response rating, Oat, Wild (oat, wild [3]; Postemergence, 125 g ai/ha): 0 | Plant response rating, Ryegrass, Italian (ryegrass, Italian [4]; 500 g ai/ha, postemergence): 60 | Plant response rating, Ryegrass, Italian (ryegrass, Italian [4]; Postemergence, 125 g ai/ha): 40 | Soybean plant response rating (soybean [5]; [24]): 90 | Plant response rating, Soybean (soybean [5]; [25]): 50 | Plant response rating, Barnyardgrass (barnyardgrass [6]; 500 g ai/ha, postemergence): 50 | Plant response rating, Barnyardgrass (barnyardgrass [6]; Postemergence, 125 g ai/ha): 20 | Foxtail, Green plant response rating (green foxtail [7]; [24]): 100 | Plant response rating, Foxtail, Green (green foxtail [7]; [25]): 50 | Plant response rating, Foxtail, Green (green foxtail [8]; 500 g ai/ha, postemergence): 80 | Plant response rating, Foxtail, Green (green foxtail [8]; Postemergence, 125 g ai/ha): 20 | Oat, Wild plant response rating (oat, wild [9]; [24]): 40 | Plant response rating, Oat, Wild (oat, wild [9]; [25]): 20 | Plant response rating, Sedge, Umbrella (Flood) (sedge, umbrella): 40 | Plant response rating, Ducksalad (Flood) (ducksalad): 30 | Plant response rating, Horseweed (horseweed; 500 g ai/ha, postemergence): 60 | Plant response rating, Horseweed (horseweed; Postemergence, 125 g ai/ha): 60 | Plant response rating, Pigweed, Palmer (pigweed, palmer [10]; 500 g ai/ha, postemergence): 100 | Plant response rating, Pigweed, Palmer (pigweed, palmer [10]; Postemergence, 125 g ai/ha): 90 | Plant response rating, Soybean (soybean [11]; 500 g ai/ha, postemergence): 100 | Plant response rating, Soybean (soybean [11]; Postemergence, 125 g ai/ha): 100 | Plant response rating, Ragweed (ragweed [12]; 500 g ai/ha, postemergence): 100 | Plant response rating, Ragweed (ragweed [12]; Postemergence, 125 g ai/ha): 90 | Pigweed, Palmer plant response rating (pigweed, palmer [13]; [24]): 100 | Plant response rating, Pigweed, Palmer (pigweed, palmer [13]; [25]): 100 | Plant response rating, Barnyardgrass (Flood) (barnyardgrass [14]): 55 | Kochia plant response rating (kochia [15]; [24]): 90 | Plant response rating, Kochia (kochia [15]; [25]): 0 | Blackgrass plant response rating (blackgrass [16]; [24]): 30 | Plant response rating, Blackgrass (blackgrass [16]; [25]): 0 | Plant response rating, Kochia (kochia [17]; 500 g ai/ha, postemergence): 100 | Plant response rating, Kochia (kochia [17]; Postemergence, 125 g ai/ha): 100 | Plant response rating, Corn (corn [18]; 500 g ai/ha, postemergence): 50 | Plant response rating, Corn (corn [18]; Postemergence, 125 g ai/ha): 10 | Corn plant response rating (corn [19]; [24]): 50 | Plant response rating, Corn (corn [19]; [25]): 0 | Barnyardgrass plant response rating (barnyardgrass [20]; [24]): 80 | Plant response rating, Barnyardgrass (barnyardgrass [20]; [25]): 20 | Ragweed plant response rating (ragweed [21]; [24]): 90 | Plant response rating, Ragweed (ragweed [21]; [25]): 70 | Plant response rating, Wheat (wheat [22]; 500 g ai/ha, postemergence): 20 | Plant response rating, Wheat (wheat [22]; Postemergence, 125 g ai/ha): 10 | Plant response rating, Blackgrass (blackgrass [23]; 500 g ai/ha, postemergence): 70 | Plant response rating, Blackgrass (blackgrass [23]; Postemergence, 125 g ai/ha): 20
